“And” between values parts separate entries of the source, which are not always exact repeats. Equal entries are not always repeated. Where two headings read alike, the source gives them in different places.
How the values were obtained:
MDR1 = assay: Permeability in MDCKII-MDR1 cells; type: in vitro ADME, canine; settings: dog, MDCK-MDR1
Protocol: (§1) The in silico ADME characterization has recently been reported for NAPRT inhibitors 1, 15 and 16, belonging to different chemotypes, and the results indicated promising pharmacokinetic features for the studied compounds [17]. With the aim to preliminarily shed light on the pharmacokinetics of this series of compounds, 18 was evaluated for its in vitro ADME profile. Kinetic solubility at pH 7.4, plasma protein binding from human and mouse species determined by using equilibrium dialysis, intrinsic hepatic clearance determined in human and mouse liver microsomes, and permeability studies in MDCKII (Madin–Darby canine kidney cells, a cell strain derived from the distal tubule or collecting duct of the nephron) and MDCKII-MDR1 (MDCK II cells overexpressing the multidrug resistance protein 1, MDR1) cell lines were performed according to previously reported procedures. Both cell lines were originally obtained from American Type Culture Collection (ATCC) and have been cultured and amplified with respect to permeability assessment at the test site.

MDCKII-MDR1 = assay: Permeability in MDCKII-MDR1 cells; type: in vitro ADME, canine; settings: from efflux ratio in MDCKII-MDR1
Protocol: as §1

[1] = Plasma protein binding by equilibrium dialysis, mouse; type: in vitro ADME; settings: performed at 0.5 μM, read-out: Protein Binding, Mouse plasma (FU)
Protocol: as §1

[2] = Permeability in MDCKII cells; type: in vitro ADME, canine; settings: dog, MDCK
Protocol: as §1

[3] = Hepatic intrinsic clearance in mouse liver microsomes; type: in vitro ADME
Protocol: as §1

Human recombinant NAPRT [4] = target: T1, Human recombinant NAPRT (Homo sapiens, UniProt Q6XQN6); assay: Kinetic analyses of NAPRT inhibition (HPLC assay, Lineweaver–Burk plot); type: biochemical
T1 construct: made in house
T1 sequence (Q6XQN6 1-538): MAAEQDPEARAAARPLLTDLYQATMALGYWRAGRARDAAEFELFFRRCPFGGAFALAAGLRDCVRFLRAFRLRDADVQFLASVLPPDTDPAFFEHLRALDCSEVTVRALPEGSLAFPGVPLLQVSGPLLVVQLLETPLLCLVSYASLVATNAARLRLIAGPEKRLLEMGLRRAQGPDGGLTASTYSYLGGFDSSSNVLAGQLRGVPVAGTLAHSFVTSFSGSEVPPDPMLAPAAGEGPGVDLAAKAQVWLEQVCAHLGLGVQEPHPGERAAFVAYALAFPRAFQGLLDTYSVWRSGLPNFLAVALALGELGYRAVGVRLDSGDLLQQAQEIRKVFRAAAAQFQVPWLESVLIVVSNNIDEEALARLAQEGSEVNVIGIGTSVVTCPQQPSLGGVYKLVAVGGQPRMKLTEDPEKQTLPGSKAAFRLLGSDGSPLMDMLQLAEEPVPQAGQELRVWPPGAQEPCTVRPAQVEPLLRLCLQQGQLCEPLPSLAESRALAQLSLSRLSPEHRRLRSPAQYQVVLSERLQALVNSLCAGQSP

Human recombinant NAPRT [5] = target: T1, Human recombinant NAPRT; assay: HPLC-based NAPRT activity screening assay; type: biochemical
[6] = Kinetic solubility at pH 7.4; type: physicochemical; settings: pH 7.4, aqueous buffer, kinetic from dmso stock
Protocol: as §1

[7] = Hepatic intrinsic clearance in human liver microsomes; type: in vitro ADME
Protocol: as §1

[8] = Plasma protein binding by equilibrium dialysis, human; type: in vitro ADME; settings: performed at 0.5 μM, read-out: Protein Binding, Human plasma (FU)
Protocol: as §1

Papp A→B (MDR1; apical to basolateral): 0.339 ×10⁻⁶ cm/s | Papp B→A (MDR1; basolateral to apical): 17.4 ×10⁻⁶ cm/s | efflux ratio (MDR1; read-out: Efflux Ratio MDCKII-MDR1 (B-A/A-B)): 51.3 | P-gp substrate status (MDCKII-MDR1): P-gp substrate | fraction unbound at 0.5 μM [1]: > 0.5 | Papp A→B ([2]; apical to basolateral): 3.83 ×10⁻⁶ cm/s | Papp B→A ([2]; basolateral to apical): 6.59 ×10⁻⁶ cm/s | efflux ratio ([2]; read-out: Efflux Ratio MDCKII (B-A/A-B)): 1.7 | Mouse Cli ([3]; mouse liver microsomes): 120 µL/min/mg protein | WSM in vivo prediction ([3]; mouse, well-stirred model): 26.9 mL/min/kg | Inhibition mechanism towards NA (Human recombinant NAPRT [4]): noncompetitive | Inhibition mechanism towards PRPP (Human recombinant NAPRT [4]): mixed | Ki (Human recombinant NAPRT [4]; NA 25 µM to 100 µM at 0.4 mM PRPP, noncompetitive, read-out: Ki towards NA): 338 µM | Ki (Human recombinant NAPRT [4]; PRPP 25 µM to 100 µM at 0.4 mM NA, mixed, read-out: Ki towards PRPP): 134 µM | Effect on NAPRT catalytic activity (in words) (Human recombinant NAPRT [5]): inhibit NAPRT activity | inhibition at 1000 µM (Human recombinant NAPRT [5]; 1 mM compound, 0.2 mM NA, 0.4 mM PRPP, read-out: % Inhibition): 46.1 ± 8.1% | solubility kinetic [6]: 312 µM and 130 µg/mL | Human Cli ([7]; human liver microsomes): <9.92 µL/min/mg protein | WSM in vivo prediction ([7]; human, well-stirred model): 6.83 mL/min/kg | fraction unbound at 0.5 μM [8]: 0.146
Compound: CC(=O)Nc1cccc(CNc2ccc3c(c2)nc(C)n3C)c1 [Compound 18, N-(3-(((1,2-dimethyl-1H-benzo[d]imidazol-5-yl)amino)methyl)phenyl)acetamide]
-Fold Stimulation (not active class) (Human recombinant NAPRT [5]; 1 mM compound, 0.2 mM NA, 0.4 mM PRPP): - (Not active, it is referred to compounds showing less than 10% inhibition or less than 1.10-fold stimulation)

— paper PMC9967085, “Properly Substituted Benzimidazoles as a New Promising Class of Nicotinate Phosphoribosyltransferase (NAPRT) Modulators” (Pharmaceuticals, 2023)
